Experimental data: ChEMBL document CHEMBL1141781, “Antineoplastic agents. 542. Isolation and structure of sesterstatin 6 from the Indian Ocean sponge Hyrtios erecta” (2005)
Values after ≈ are worked out from the molar mass of the structure shown.

Experiments:
Format in all cases: functional
DU-145 = experiment: Growth inhibition of human DU145 cells
FaDu = experiment: Growth inhibition of human FADU cells
NCI-H460 = experiment: Growth inhibition of human NCI-H460 cells
BXPC-3 = experiment: Growth inhibition of human BxPC3 cells
[1] = Growth inhibition of human KAT4 cells; conditions: KAT-4
P388 = experiment: Growth inhibition of mouse P388 cells; conditions: read-out: ED50 (the source's name)
SW-1736 = experiment: Growth inhibition of human SW1736 cells
U-251 = experiment: Growth inhibition of human U251 cells
RPMI-7951 = experiment: Growth inhibition of human RPMI7951 cells

GI50 (DU-145) [µg/mL] | GI50 (NCI-H460) [µg/mL] | GI50 (BXPC-3) [µg/mL] | EC50 (P388) [µg/mL] | GI50 (SW-1736) [µg/mL] | GI50 (U-251) [µg/mL] | SMILES | GI50 (FaDu) [µg/mL] | GI50 [1] [µg/mL] | GI50 (RPMI-7951) [µg/mL]
0.37 (≈ 0.884 µM) | 0.18 (≈ 0.43 µM) | 0.44 (≈ 1.05 µM) | 0.17 (≈ 0.406 µM) | 0.87 (≈ 2.08 µM) | – | CC1(C)CCC[C@]2(C)[C@H]3C[C@@H](O)[C@]4(C)C5=C(C(=O)O[C@H]5O)[C@@H](O)C[C@H]4[C@]3(C)CC[C@@H]12 [SESTERSTATIN 6] | 0.89 (≈ 2.13 µM) | 0.4 (≈ 0.956 µM) | –
1.9 (≈ 4.91 µM) | 2.5 (≈ 6.47 µM) | 2.2 (≈ 5.69 µM) | > 10 | – | 1.9 (≈ 4.91 µM) | CC1(C)CCC[C@]2(C)[C@H]3C[C@@H](O)[C@]4(C)c5cocc5[C@@H](O)C[C@H]4[C@]3(C)CC[C@@H]12 [SESTERSTATIN 5] | 1.9 (≈ 4.91 µM) | – | 2.1 (≈ 5.43 µM)

The remaining lines, values behind:

SMILES | GI50 (DU-145) [µg/mL] | GI50 (NCI-H460) [µg/mL] | GI50 (BXPC-3) [µg/mL] | EC50 (P388) [µg/mL] | GI50 (SW-1736) [µg/mL] | GI50 (U-251) [µg/mL] | GI50 (FaDu) [µg/mL] | GI50 [1] [µg/mL] | GI50 (RPMI-7951) [µg/mL]
CC1(C)CCC[C@]2(C)[C@H]3C[C@@H](O)[C@]4(C)c5cocc5[C@H](O)C[C@H]4[C@]3(C)CC[C@@H]12 [SESTERSTATIN 4] | 1.6 (≈ 4.14 µM) | 1.8 (≈ 4.66 µM) | 1.6 (≈ 4.14 µM) | 4.9 (≈ 12.7 µM) | 2.1 (≈ 5.43 µM) | – | 2 (≈ 5.17 µM) | 2 (≈ 5.17 µM) | –
C[C@@]1(CO)CCC[C@]2(C)[C@H]3C[C@@H](O)[C@]4(C)C5=C(CC[C@H]4[C@]3(C)CC[C@@H]12)COC5=O [SESTERSTATIN 3] | – | – | – | 4.3 (≈ 10.7 µM) | – | – | – | – | –
CC1(C)[C@@H](O)CC[C@]2(C)[C@H]3C[C@@H](O)[C@]4(C)C5=C(CC[C@H]4[C@]3(C)CC[C@@H]12)COC5=O [SESTERSTATIN 1] | – | – | – | 0.46 (≈ 1.14 µM) | – | – | – | – | –
C[C@]1(CO)CCC[C@]2(C)[C@H]3C[C@@H](O)[C@]4(C)C5=C(CC[C@H]4[C@]3(C)CC[C@@H]12)COC5=O [SESTERSTATIN 2] | – | – | – | 4.2 (≈ 10.4 µM) | – | – | – | – | –
